# According to a melting point compilation (Tetko et al.; mined from patent text by program, amines drawn as free bases though some values may be those of a salt):
row,SMILES,melting point [°C]
1,N#CC(O)CC12CCC(c3ccccc31)c1ccccc12 (stereo not drawn),139 to 141
2,CCCS(=O)(=O)c1cc([C@H]2CC[C@H](c3cc(OC)c(OC)c(OC)c3)O2)cc(OC)c1OCCBr (relative stereo),135 to 136
3,CN1C(=O)CC[C@]2(C)c3ccc(-c4c(F)c(F)c(Cl)c(F)c4F)cc3CC[C@@H]12,150 to 151
4,O=C(O)[C@H]1C[C@H](F)CN1,258 to 260
5,CCCn1c(=O)c2c(nn3cc(-c4ccccc4)[nH]c23)n(Cc2ccccc2)c1=O,261 to 262
6,O=C(Nc1ncc(C(F)(F)F)o1)C1c2ccc(F)cc2Oc2cc(F)ccc21,249
7,CCCc1nc2c(N)nc3cc(C(F)(F)F)ccc3c2s1,215 to 216
8,COc1c(C2CCN(CCCCNC(=O)c3ccc(-c4ccc(C#N)cc4)nc3)CC2)ccc2c1CCCC2,166 to 168
9,CSc1c[nH]nc1C1CN2CCC1CC2 (stereo not drawn),145 to 147
10,CC(C)Oc1ccc(C2Cc3ccccc3C(=O)N2C)cc1 (stereo not drawn),115 to 116
11,N#Cc1c(N2CCN(C(=O)c3cccs3)CC2)c2cccnc2n(Cc2cccc(F)c2)c1=O,231
12,CC1(C)CCC(C)(C)c2cc3oc(-c4ccc(CO)cc4)nc3cc21,200
13,NCc1ccccc1N,58 to 61
14,COc1ccc(NC=C(C#N)C(=O)Nc2cc(OC)c(Cl)cc2Cl)cc1F,275 to 276
15,Cc1cc(C)nc(NC(=O)NS(=O)(=O)c2ccsc2C2=CC(=O)CCC2)n1,190 to 192
16,O=c1[nH]c2ccccc2c(=O)n1Cc1cccnc1,241 to 243
17,C=CCOC(=O)c1cccc(C)c1OS(=O)(=O)NC(=O)Nc1nc(C)cc(OC)n1,127 to 128
18,COC(=O)c1ccccc1-c1cc(F)cc(OCc2ccc3c(-c4ccoc4)cc(C#N)nc3c2)c1,152 to 154
19,CC=C(C)C1CCC2C3CC=C4CC(O)CCC4(C)C3CCC12C (stereo not drawn),140 to 145

row,SMILES,melting point [°C]
1,CCc1nc2c(N)nc(C)c(C)c2n1CCOCCN,152 to 154
2,Cc1ccc2c(c1)[C@H]1Cc3ccccc3[C@H]1N2C (relative stereo),54
3,COc1cc(C=NO)c2oc(-c3ccc(OC)c(F)c3)cc2c1,208 to 210
4,COc1cc2c(=O)c(C#N)c[nH]c2cc1[N+](=O)[O-],305 to 309
5,CCCN(c1ccccc1)S(=O)(=O)c1ccc(C(CC2CCCC2)C(=O)Nc2nc3ccc(OC)nc3s2)cc1 (stereo not drawn),83 to 85
6,COc1ccc2nc([C@H](CC(C)C)NC(=O)OCc3ccccc3)[nH]c2c1,73 to 77
7,Cc1ccc(C(=O)n2c(C)c(CC(=O)O)c3cc4c(cc32)OCCO4)cc1,162 to 163
8,O=C(Nc1cccc2ccccc12)c1ccn2c1CSC2c1cccnc1 (stereo not drawn),136
9,"CC(c1ccccc1)N1Cc2cncn2C(c2cccc(Br)c2)C1=O (single isomer, unassigned; (+))",45 to 50
10,O=C(O)CCCOC(c1ccccc1)(c1ccccc1)c1ccccc1,137 to 140
11,CCOC(=O)C(=O)CC(=O)c1cn(Cc2ccccc2OC)c2ccccc2c1=O,154 to 156
12,O=C(Nc1cccc(CC(F)(F)F)c1)Nc1ccc2c(c1)COC2=O,279 to 282
13,Cc1nnc(SCc2nc(NCCCOc3cccc(CN4CCCCC4)c3)n(C)n2)s1,63
14,O=c1[nH]sc2c1c(=O)c1cc(F)c(N3CCNCC3)cc1n2C1CC1,> 275
15,CSc1nc(=O)n(C2CCCCC2)c(=O)n1C,137 to 139
16,O=C(Cc1c(-c2cccnc2)c2cc(CN3CCN(c4ccccc4)CC3)c(Cl)cc2oc1=O)Nc1ccc(Cl)cc1C(F)(F)F,214 to 216
17,CN(C(CCn1c(=O)cc(-c2ccccc2)[nH]c1=O)C(=O)NO)S(=O)(=O)c1ccc(Oc2ccccc2)cc1 (stereo not drawn),179 to 181
18,CC(C)(C)OC(=O)n1cc(C=C(Br)Br)c2ccccc21,101 to 104
19,COc1cc(C=CC=O)ccc1OC(C)c1nc(-c2ccccc2)oc1C (stereo not drawn),152 to 153
